Test results published in patent publication US10787450B2 (BRISTOL-MYERS SQUIBB COMPANY, priority 2016, dated 2020).

Target: ROCK2 (Homo sapiens (Human), UniProt O75116)
Experiment: ROCK2 kinase inhibition assay (FITC peptide substrate, LABCHIP 3000 Reader)
Type: biochemical
Settings: 5 μM ATP, 1.5 μM peptide substrate
Outline: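 Reaction in 20 mM HEPES pH 7.5, 20 mM MgCl2, 0.015% Brij-35, 4 mM DTT with 5 μM ATP and 1.5 μM FITC-AHA-AKRRRLSSLRA-OH peptide, started with Rho kinase, DMSO <2%. EDTA-stopped; phospho and non-phospho peptide separated by mobility shift. IC50 from dose-response curve fit.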

Chain of ROCK2 (O75116 whole entry, species assumed): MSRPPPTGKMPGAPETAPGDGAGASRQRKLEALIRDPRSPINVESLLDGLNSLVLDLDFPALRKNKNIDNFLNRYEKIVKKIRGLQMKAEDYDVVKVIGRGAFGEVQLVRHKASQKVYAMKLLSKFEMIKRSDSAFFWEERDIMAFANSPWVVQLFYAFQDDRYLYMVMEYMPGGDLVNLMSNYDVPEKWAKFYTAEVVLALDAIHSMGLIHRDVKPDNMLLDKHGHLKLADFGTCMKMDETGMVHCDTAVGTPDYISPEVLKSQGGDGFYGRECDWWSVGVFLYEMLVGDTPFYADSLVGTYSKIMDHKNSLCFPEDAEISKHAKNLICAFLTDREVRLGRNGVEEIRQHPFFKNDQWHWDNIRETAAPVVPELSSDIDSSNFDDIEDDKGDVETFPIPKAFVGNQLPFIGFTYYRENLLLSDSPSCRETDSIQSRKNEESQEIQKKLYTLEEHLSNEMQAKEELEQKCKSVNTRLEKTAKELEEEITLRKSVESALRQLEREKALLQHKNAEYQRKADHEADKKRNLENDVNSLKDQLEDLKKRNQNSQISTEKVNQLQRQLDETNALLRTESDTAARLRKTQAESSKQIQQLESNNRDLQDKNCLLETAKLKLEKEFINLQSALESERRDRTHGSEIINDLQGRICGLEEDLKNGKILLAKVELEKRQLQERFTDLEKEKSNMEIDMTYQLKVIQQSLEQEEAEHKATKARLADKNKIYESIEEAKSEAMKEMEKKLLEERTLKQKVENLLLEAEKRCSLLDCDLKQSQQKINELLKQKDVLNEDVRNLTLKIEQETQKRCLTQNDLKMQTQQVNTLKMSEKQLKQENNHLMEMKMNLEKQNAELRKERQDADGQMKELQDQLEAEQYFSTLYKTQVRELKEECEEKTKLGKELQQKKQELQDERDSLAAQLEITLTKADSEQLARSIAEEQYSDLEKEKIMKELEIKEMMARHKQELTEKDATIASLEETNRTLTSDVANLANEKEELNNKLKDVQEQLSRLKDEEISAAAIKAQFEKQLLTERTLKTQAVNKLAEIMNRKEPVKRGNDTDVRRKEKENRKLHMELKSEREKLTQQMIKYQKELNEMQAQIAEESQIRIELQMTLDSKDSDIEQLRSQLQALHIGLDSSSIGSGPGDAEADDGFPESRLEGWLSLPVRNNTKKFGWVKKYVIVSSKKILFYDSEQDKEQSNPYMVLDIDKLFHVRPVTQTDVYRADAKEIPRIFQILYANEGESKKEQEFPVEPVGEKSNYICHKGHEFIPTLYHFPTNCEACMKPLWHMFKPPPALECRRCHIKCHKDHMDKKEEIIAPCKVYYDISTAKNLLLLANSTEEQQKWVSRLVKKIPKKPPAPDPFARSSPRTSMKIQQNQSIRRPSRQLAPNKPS

SMILES	IC50 [nM]
CCc1nc(N2CC3(CCN(CC(C)(C)O)CC3)N(Cc3cc(F)cc(OC)c3)C2=O)ccc1-c1cn[nH]c1 [Example 155, 3-(6-ethyl-5-(1H-pyrazol-4-yl)pyridin-2-yl)-1-(3-fluoro-5-methoxybenzyl)-8-(2-hydroxy-2-methylpropyl)-1,3,8-triazaspiro[4.5]decan-2-one]	< 3
CCc1nc(N2CC3(CCN(CC(C)(C)O)CC3)N(Cc3cccc(OC)c3)C2=O)ccc1-c1cn[nH]c1 [Example 152, 3-(6-ethyl-5-(1H-pyrazol-4-yl)pyridin-2-yl)-8-(2-hydroxy-2-methylpropyl)-1-(3-methoxybenzyl)-1,3,8-triazaspiro[4.5]decan-2-one]	< 3
CCc1nc(N2CC3(CCN(CCO)CC3)N(Cc3cccc(F)c3C)C2=O)ccc1-c1cn[nH]c1 [Example 149, 3-(6-ethyl-5-(1H-pyrazol-4-yl)pyridin-2-yl)-1-(3-fluoro-2-methylbenzyl)-8-(2-hydroxyethyl)-1,3,8-triazaspiro[4.5]decan-2-one]	< 3
COc1cccc(CN2C(=O)N(c3ncc(-c4cn[nH]c4)c(OC)n3)CC23CCN(C(C)=O)CC3)c1 [Example 90, 8-acetyl-3-(4-methoxy-5-(1H-pyrazol-4-yl)pyrimidin-2-yl)-1-(3-methoxybenzyl)-1,3,8-triazaspiro[4.5]decan-2-one]	3 to 30
CCOC(=O)N1CCC2(CC1)CN(c1ncc(-c3cn[nH]c3)c(OC)n1)C(=O)N2Cc1cccc(OC)c1 [Example 112, ethyl 3-(4-methoxy-5-(1H-pyrazol-4-yl)pyrimidin-2-yl)-1-(3-methoxybenzyl)-2-oxo-1,3,8-triazaspiro[4.5]decane-8-carboxylate]	3 to 30
COc1cccc(CN2C(=O)N(c3ncc(-c4cn[nH]c4)c(OC)n3)CC23CCN(CCC(F)(F)F)CC3)c1 [Example 134, 3-(4-methoxy-5-(1H-pyrazol-4-yl)pyrimidin-2-yl)-1-(3-methoxybenzyl)-8-(3,3,3-trifluoropropyl)-1,3,8-triazaspiro[4.5]decan-2-one]	30 to 250

Further lines, results first:

IC50 [nM]	SMILES
< 3	CCc1nc(N2CC3(CCN(C(=O)OC)CC3)N(Cc3cc(F)cc(OC)c3)C2=O)ccc1-c1cn[nH]c1 [Example 107, methyl 3-(6-ethyl-5-(1H-pyrazol-4-yl)pyridin-2-yl)-1-(3-fluoro-5-methoxybenzyl)-2-oxo-1,3,8-triazaspiro[4.5]decane-8-carboxylate]
3 to 30	COc1cccc(CN2C(=O)N(c3ccc(-c4cn[nH]c4)cc3)CC23CCN(C(=O)c2cnn4ccccc24)CC3)c1 [Example 180, 3-(4-(1H-pyrazol-4-yl)phenyl)-1-(3-methoxybenzyl)-8-(pyrazolo[1,5-a]pyridine-3-carbonyl)-1,3,8-triazaspiro[4.5] decan-2-one]
< 3	CCc1nc(N2CC3(CCN(C(=O)C(C)(C)CO)CC3)N(Cc3cccc(OC)c3)C2=O)ccc1-c1cn[nH]c1 [Example 204, 3-(6-ethyl-5-(1H-pyrazol-4-yl)pyridin-2-yl)-8-(3-hydroxy-2,2-dimethylpropanoyl)-1-(3-methoxybenzyl)-1,3,8-triazaspiro[4.5]decan-2-one]
< 3	CCc1nc(N2CC3(CCN(CC(C)O)CC3)N(Cc3cc(F)cc(OC)c3)C2=O)ccc1-c1cn[nH]c1 (stereo not drawn) [Example 154, 3-(6-ethyl-5-(1H-pyrazol-4-yl)pyridin-2-yl)-1-(3-fluoro-5-methoxybenzyl)-8-(2-hydroxypropyl)-1,3,8-triazaspiro[4.5]decan-2-one]
< 3	COc1cc(F)cc(CN2C(=O)N(c3ccc(-c4cn[nH]c4)cc3)CC23CCOCC3)c1 [Example 10, 3-(4-(1H-pyrazol-4-yl)phenyl)-1-(3-fluoro-5-methoxybenzyl)-8-oxa-1,3-diazaspiro[4.5]decan-2-one]
< 3	CCc1nc(N2CC3(CCN(C(C)=O)CC3)N(Cc3cccc(OC)c3)C2=O)ccc1-c1cn[nH]c1 [Example 88, 8-acetyl-3-(6-ethyl-5-(1H-pyrazol-4-yl)pyridin-2-yl)-1-(3-methoxybenzyl)-1,3,8-triazaspiro[4.5]decan-2-one]
